Measurements as given in patent US20080187568A1, “Polymerization with precipitation of proteins for elution in physiological solution” (priority 2007, published 2008).
Where two headings read alike, the source gives them in different places.

What was measured:
[1] = cited from earlier work
[2] = Solubility / precipitation of the agent in hydrogel precursor solutions
Procedure: (§1) 0.68 grams 4 arm-n-hydroxysuccinimide ester of polyethylene glycol and carboxymethylene-butyric acid, average molecular weight 10000 Daltons (Shearwater 4 arm CM-HBA-NS-10K) is dissolved in 2.82 g 0.01M phosphate buffer at pH 4.0 and is sterile filtered. Solution B is prepared by dissolving 0.025 grams trilysine and 10 mg bovine fibrinogen (purchased from Sigma Chemicals) in 3.47 g 0.1M borate buffer at pH 9.5 with 0.1 mg/mL methylene blue for visualization. 1 ml of solution A and B are mixed to promote condensation polymerization. Trilysine and PEG-NHS ester react to form a crosslinked hydrogel.
(§2) 1.41 grams 4 arm-n-hydroxysuccinimide ester of polyethylene glycol carboxymethylene-butyric acid, average molecular weight 10000 Daltons (Shearwater 4 arm CM-HBA-NS-10K) and 100 mg of Bone Morphogenetic Protein 2 (BMP-2 protein, recombinant, Sigma catalog B3555) are mixed in a solid state as lyophilized powders and are dissolved/suspended in 2.96 ml 0.1 M HCl just prior to use. Solution B is prepared by dissolving 0.06 grams dilysine (purchased from Sigma Chemicals) in 7.2 g 0.1M borate buffer at pH 9.5 with 0.1 mg/mL methylene blue for visualization. 1 ml of solution A and B are mixed to promote condensation polymerization between dilysine and PEG-NHS ester. Dilysine and PEG-NHS ester react to form a crosslinked hydrogel. HCl is neutralized by borate buffer to form a neutral/basic solution medium.
(§3) 1.37 grams 4 arm-n-hydroxysuccinimide ester of polyethylene glycol carboxymethylene-butyric acid, average molecular weight 10000 Daltons (Shearwater 4 arm CM-HBA-NS-10K) is dissolved in 5.64 g 0.01M phosphate buffer at pH 4.0 and is sterile filtered. Solution B is prepared by dissolving 0.050 grams trilysine and 100 mg paclitaxel in 6.94 g 0.1M borate buffer at pH 9.5 with 0.5 mg/mL methylene blue for visualization. […] Trilysine and PEG-NHS ester react to form a crosslinked hydrogel.

[3] = pH 9.5
Procedure: as §1, §2, §3

Row | Molecule | solubility at pH 4 [1] [g/L] | solubility at pH 7 [1] [g/L] | solubility at pH 10 [1] [g/L] | other results
1 | COc1c(N2C[C@@H]3CCCN[C@@H]3C2)c(F)cc2c(=O)c(C(=O)O)cn(C3CC3)c12 [Moxifloxacin] | 11 | 0.13 | 0.14 | –
2 | CO[C@H]1/C=C/O[C@@]2(C)Oc3c(C)c(O)c4c(O)c(c(/C=N/N5CCN(C)CC5)c(O)c4c3C2=O)NC(=O)/C(C)=C\C=C\[C@H](C)[C@H](O)[C@@H](C)[C@@H](O)[C@@H](C)[C@H](OC(C)=O)[C@@H]1C [Rifampicin, rifampicin] | 1.6 | 0.16 | 1000 | –
3 | CC(C)(C)NC[C@H](O)COc1nsnc1N1CCOCC1 [Timolol] | 1000 | 160 | 2.4 | –
4 | CC(=O)O[C@H]1C(=O)[C@@]2(C)[C@H]([C@H](OC(=O)c3ccccc3)[C@]3(O)C[C@H](OC(=O)[C@H](O)[C@@H](NC(=O)c4ccccc4)c4ccccc4)C(C)=C1C3(C)C)[C@]1(OC(C)=O)CO[C@@H]1C[C@@H]2O [paclitaxel] | – | – | – | solubility in borate buffer ([2]; 0.1M borate buffer at pH 9.5 (solution B)): insoluble
5 | Cc1c(C)c2c(c(C)c1O)CC[C@@](C)(CCC[C@H](C)CCC[C@H](C)CCCC(C)C)O2 [vitamin E, alpha-Tocopherol] | – | – | – | solubility in borate buffer [3]: insoluble
6 | Fibrinogen | – | – | – | precipitation on mixing with PEG-NHS ester solution ([2]; fibrinogen in trilysine solution mixed with PEG-NHS ester solution): precipitated
